Test results: PMC10235986, “Probing differences among Aβ oligomers with two triangular trimers derived from Aβ” (Proceedings of the National Academy of Sciences of the …, 2023)

Legend:
[1] = system: SH-SY5Y cells; test: Live-cell fluorescence microscopy of HL647-Aβ42 cellular interaction; type: cell-based, human; settings: 1 μM HL647-Aβ42, absence of 2AT and KLT, 16 h
Protocol: Fig. 7. The effects of 2AT and KLT on Aβ42 toxicity and cellular interaction (A–D). (A) LDH release assay (B) CellTiter-Glo ATP assay. (C) ApoLive-Glo cell viability assay. (D) ApoLive-Glo caspase-3/7 activation assay. The cell-based assays in A–D were performed by exposing SH-SY5Y cells to 6 μM Aβ42 in the presence of a twofold dilution series of 2AT and KLT for 72 h. All data from the assays are shown as the mean of three technical replicates, with error bars representing the SD. (E–I) Live-cell fluorescence micrographs of SH-SY5Y cells after treatment with 1 μM HiLyte™ Fluor 647-Aβ42 (HL647-Aβ42) in the presence of 0 μM trimer (E) or 2 μM and 4 μM 2AT (F and G) or 2 μM and 4 μM KLT (H and I) for 16 h; (Scale bars, 20 μm.) Fluorescence quantification (FQ), as determined by (total fluorescence of HL647Aβ42)/(total number of cells) is indicated on each micrograph. Dead cells were excluded from the fluorescence quantification analysis and are marked with a white “x”. […]
For these experiments, we exposed SH-SY5Y cells to 1 μM solutions of N-terminally labeled HiLyte™ Fluor 647-Aβ42 (HL647-Aβ42) containing 0 μM, 2 μM, or 4 μM 2AT or KLT and then used live-cell fluorescence microscopy to visualize and quantify HL647-Aβ42 fluorescence on the cells. […]

[2] = system: SH-SY5Y cells; test: Toxicity of Aβ42 alone (LDH release, ATP levels, caspase-3/7 activation, cell viability); type: cell-based, human
Excerpt: To investigate the effect of 2AT and KLT on Aβ42 toxicity, we performed a series of cell-based toxicity experiments in which we examined four toxicity markers—LDH release, changes in ATP levels, caspase-3/7 activation, and cell viability—in SH-SY5Y cells exposed to Aβ42 in the absence or presence of 2AT and KLT. We first identified an Aβ42 concentration that elicits significant toxicity in the absence of 2AT and KLT by exposing SH-SY5Y cells to varying concentrations of Aβ42 and then performing the toxicity assays. The toxicity markers establish that Aβ42 elicits significant toxicity at 6 μM (SI Appendix, Fig. S8). […]
Detailed methods are provided in the Supporting Information. […] X-ray diffraction data for KLT and KLTI were collected on a Rigaku Micromax-007HF X-ray diffractometer with a rotating copper anode, and the X-ray crystallographic phases were determined using molecular replacement and SAD phasing. […] Live-cell fluorescence microscopy was performed on SH-SY5Y cells adhered to an Ibidi µ-Slide eight Well Chamber Slide. The cells were imaged using a Keyence BZ-X810 fluorescence microscope and analyzed using the Hybrid Cell Count application in the BZ-X810 Analyzer software. […]

Row | Substance | cellular localization / uptake of HL647-Aβ42 [1] | concentration that elicits significant toxicity [2]
1 | HL647-Aβ42: N-terminally labeled HiLyte Fluor 647-Aβ42 | accumulates as punctate features inside the cells | –
2 | Aβ42: full-length β-amyloid peptide Aβ42 | – | 6 µM
